These results are taken from patent US20230075822A1, “USE OF CASTALAGIN OR ANALOGS THEREOF FOR ANTI-CANCER EFFICACY AND TO INCREASE THE RESPONSE TO IMMUNE CHECKPOINT INHIBITORS” (THE ROYAL INSTITUTION FOR THE ADVANCEMENT OF …, priority 2020, published 2023).

The test system of one assay is CD8^+ T cells. Nature of the assay: Flow cytometry immune profiling of tumor and spleen, E0771 tumor model. Format: in vivo, C57BL/6 mice. The conditions noted are these: αPD-1 with or without treatment. As to the method:
FIGS. 7A-C are graphs showing the results of immune cell profiling by flow cytometry in the murine MCA-205 (FIGS. 7A-B) or E0771 (FIG. 7C) tumor model treated with anti-PD-1 and/or CC. The tumors and the spleens were harvested 9 days or 19 days after the first injection of anti-PD-1 mAb into mice bearing MCA-205 or E0771 tumors, respectively. Excised tumors were cut into small pieces and digested in RPMI medium containing Liberase 25 μg/mL (Roche) and DNase1 at 150 Ul/mL (Roche) for 30 minutes at 37° C. and then crushed and filtered twice using 100 and 70 μm cell strainers (Becton & Dickinson). Spleens were crushed in RPMI medium and subsequently filtered through a 100 μm cell strainer. Two million tumor cells or splenocytes were pre-incubated with purified anti-mouse CD16/CD32 (clone 93; eBioscience) for 30 minutes at 4° C., before membrane staining (CD45, CD3, CD4, CD8, PD1, PDL1, ICOS, CXCR3, CCR9, CD45RB, CD62L, CD44). For intracellular staining, the Foxp3 staining kit (eBioscience) was used. Dead cells were excluded using the Live/Dead Fixable aqua blue dead cell stain kit (Life Technologies). […] FIG. 7C is a graph showing the activation of intratumoral CD8^+ T cells (as assessed by MFI of ICOS^+CD8^+ T cells by flow cytometry) in TILs in the E0771 tumor model post-treatment with CC +/-αPD-1. […]
(A flow cytometer gives signals particle by particle.)

The next assay deals with MCA-205 sarcoma. The experiment in a line: Avatar mice: FMT from responder (R) / non-responder (NR) NSCLC patients, MCA-205 tumors. Format: in vivo, C57BL/6 mice. As to the method:
FIG. 5A is a schematic of the experimental design of avatar mice experiments. FMT from feces samples from Non-responders (NR) and responders (R) Non-small cell lung cancer (NSCLC) patients were individually performed after 3 days of ATB in SPF C57BI6 mice. Two weeks later, MCA-205 sarcoma cells were inoculated and daily gavage with water or CC were performed in combination with sequential injections of αPD-1 or IsoPD-1 mAb.
FIG. 11A is a graph showing the effect of castalagin (0.85 mg/kg) in the presence or not of anti-PD-1 on tumor growth kinetics in the in the ATB-avatar model after FMT from 1 NR NSCLC patient with daily gavage with castalagin or water in combination with αPD1 mAb or IsoPD-1. Unpaired t-tests were used. Means ±SEM are represented. *p<0.05. […]
Fecal microbiota transplantation (FM7) experiments. FMT was performed as previously published Routy et al. by thawing fecal material from 5 different Non-Small cell lung cancer (NSCLC) patients amenable to immune checkpoint blockers (ICI after appropriate ethics approval at the Centre de recherche du Centre hospitalier de l'Université de Montréal (CRCHUM) in Montreal. Patient records were retrospectively analyzed to identify their response status. Two weeks after FMT, tumor cells were injected subcutaneously and mice were treated with anti-PD-1 mAb or isotype control +/− CC, castalagin or water as described above.

For `O=C1OC[C@H]2OC(=O)c3cc(O)c(O)c(O)c3-c3c(O)c(O)c(O)c4c3C(=O)O[C@H]([C@H]3OC(=O)c5c-4c(O)c(O)c(O)c5[C@@H]3O)[C@@H]2OC(=O)c2cc(O)c(O)c(O)c2-c2c1cc(O)c(O)c2O` [castalagin, Castalagin], the “frequency of memory CD8^+ T cells (CD44^HighCD62L^−CD8^+)” value with CD8^+ T cells (splenocytes) and in the assay with CD8^+ T cells (tumor microenvironment) was “increase in frequency of memory CD8^+ T cells” each time. For the same molecule, the “antitumor activity (tumor growth)” value in the assay on MCA-205 sarcoma (castalagin 0.85 mg/kg + αPD-1, post-FMT from NR NSCLC patients) is listed as “additive effect when combined with αPD-1”; in the assay on MCA-205 sarcoma (castalagin 0.85 mg/kg alone, post-FMT from NR NSCLC patients, ATB and GF conditions) it was “able to restore antitumor activity”.
